Here are results for 1 compound from patent US4430502A, “Pyridinyl substituted benzimidazoles and quinoxalines” (The Upjohn Company, priority 1982, dated 1984).

The target of the experiment is T1, TXA2 synthetase (Homo sapiens, UniProt P24557).
T1 construct: human platelet microsomes (HPM); from tissue; host or cells: human platelet microsomes
T1 sequence (P24557 1-533): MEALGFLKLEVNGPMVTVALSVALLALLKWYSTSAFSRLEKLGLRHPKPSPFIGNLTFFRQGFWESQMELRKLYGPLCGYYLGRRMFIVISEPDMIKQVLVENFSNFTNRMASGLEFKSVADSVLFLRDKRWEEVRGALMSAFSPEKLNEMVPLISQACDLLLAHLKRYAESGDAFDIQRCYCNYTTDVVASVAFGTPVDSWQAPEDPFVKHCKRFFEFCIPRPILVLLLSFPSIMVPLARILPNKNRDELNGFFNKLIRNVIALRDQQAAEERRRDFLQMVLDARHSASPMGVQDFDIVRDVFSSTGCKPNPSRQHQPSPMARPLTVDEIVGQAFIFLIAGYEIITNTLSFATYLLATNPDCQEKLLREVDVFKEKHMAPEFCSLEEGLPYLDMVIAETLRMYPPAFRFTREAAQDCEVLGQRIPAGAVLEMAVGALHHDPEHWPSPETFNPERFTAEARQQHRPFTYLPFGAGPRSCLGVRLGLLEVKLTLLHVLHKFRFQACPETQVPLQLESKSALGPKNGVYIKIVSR
Description: TXA2 inhibition test: TXA2 generated from PGH2 with human platelet microsomes, response of superfused rabbit aortic strips. Format: biochemical. The procedure: The compounds of the present invention were tested for TXA2 inhibition as follows:
Rabbit aortic strips were superfused in series with Krebs solution. Thromboxane A2 (TXA2) was generated by mixing prostaglandin H2 (PGH2) with human platelet microsomes (HPM).
Potential inhibitors were tested by comparing the response of the rabbit aorta to the amount of TXA2 produced by mixing PGH2 and HPM without the test compound in the reaction medium and then the amount of TXA2 produced when the test compound was added to the HPM 5 minutes before the HPM was mixed with PGH2. […] For a discussion of TXA2 synthetase inhibition testing see, e.g., R. Gorman, supra.

On to `c1cncc(Cc2ccc3nc[nH]c3c2)c1` [Example 3, 5-(3-Pyridinylmethyl)benzimidazole], for which the “effectiveness in inhibiting TXA2 formation” value (compared with the other compounds tested in this test system) was “most effective”. In addition, the IC50 (test compound added to human platelet microsomes 5 minutes before mixing with PGH2, rabbit aorta response, read-out: approximate ED50 for inhibiting TXA2 formation (converted)) was ~478 nM.
